Test results as given in US20100152275A1, “Drug or Supplement Combination with Conjugated Linoleic Acid for Fat Loss in Mammals” (Kaloness, Inc., priority 2008, published 2010).
Where two headings read alike, the source gives them in different places.

Assays:
MCP-1 mRNA = MCP-1 mRNA by real time PCR in 3T3-L1 adipocytes; type: cell-based, Mouse; conditions: 12 hrs
Description: CLA has been reported to cause inflammation which is considered a non-healthy condition. […] Metformin or AICAR was used in combination with t10c12 CLA in the media containing the adipocytes for 12 hrs. RNA was isolated and the inflammatory response, as measured by MCP-1 (an inflammatory cytokine) mRNA levels, was determined by real time PCR of the reverse transcribed RNA.

AMPK = AMPK phosphorylation in 3T3-L1 adipocytes, western blot; type: cell-based, Mouse; conditions: for Phospho-AMPK Amount: 3T3-L1 adipocytes, LA = 1
Description: (§3) The level of phosphorylated AMPK and acetyl CoA carboxylase (ACC), one of AMPK's known in vivo substrates, was measured at various times after treating 3T3-L1 adipocytes with either 100 uM linoleic acid or trans-10, cis-12 CLA (t10c12 CLA). […] The total amounts of AMPK and ACC were also determined with antibodies that recognize the respective proteins regardless of phosphorylation status.
(§4) The phosphorylation levels of AMPK and ACC were then determined after treating 3T3-L1 adipocytes with either metformin, AICAR, or t10c12 CLA alone or in combination.

3T3-L1 adipocytes [1] = assay: Triglyceride levels (delipidation) in 3T3-L1 adipocytes; type: cell-based, Mouse; conditions: for TG levels: differentiated 3T3-L1 adipocytes, alone or combined with t10c12 CLA; for reduced triglyceride levels by, relative to the linoleic acid control: Example 15, CLA 50 uM
Description: Two well known AMPK activators with very different chemical structures are metformin and AICAR. Metformin is from the class of biguanides while AICAR is a ribonucleoside analog that is phosphorylated in the cell to form ZMP, an AMP mimetic. […] A lower 50 μM level of t10c12 CLA was used in the experiment to better measure any effects of the combinations.
We recognize the complex medical effects and dangers of ATRA, retinoids, or rexinoids, has limited their therapeutic use in humans.
We tested the role of PPARβ/δ with the use of GW0742, a PPARβ/δ agonist.
Activating ligands include hydroxysterols such as 24(S)-Hydroxycholesterol or 24(S),25-epoxycholesterol.
We treated 3T3-L1 adipocytes with control or CLA fatty acids, with or without a statin drug.

adipocytes = assay: Inflammatory response to phenformin in adipocytes; type: cell-based; conditions: compared with metformin
[2] = reference [18]; cited from earlier work
3T3-L1 adipocytes [3] = assay: Microarray gene expression changes in 3T3-L1 adipocytes; type: cell-based, Mouse; conditions: compared with t10c12 CLA, data not shown
[4] = 14 d feeding trial of t10c12 CLA and metformin in ML mice; type: in vivo; conditions: for fat pad weights relative to control untreated mice: 0.25% CLA, either dose of metformin; for final weight of the epididymal (EPI) / final weight of the retroperitoneal (RP) / change in body weight (BW): mean ± SEM
Description: (§1) FIG. 1. […] Forty-two MC and 42 mL mice were fed diets containing soy oil or soy oil with 0.25% t10c12 CLA and drinking water containing either none, 0.33 mg/ml, or 3.33 mg/ml metformin (Met) for 14 days (n=6 mice per treatment). A positive control diet contained the standard amount of 0.5% t10c12 CLA without any metformin. Body weights were recorded and retroperitoneal (RP) and epididymal fat pads from all the mice were isolated and weighed.

[5] = 14 d feeding trial of t10c12 CLA and metformin in MC mice; type: in vivo; conditions: mean ± SEM
Description: as §1

[6] = tested on: acetyl CoA carboxylase (ACC); conditions: for Phospho-ACC amount: 3T3-L1 adipocytes, LA = 1
Description: as §3, §4

WAT of mice = assay: Microarray analysis of WAT of mice fed t10c12 CLA; type: in vivo
Text: Recent microarray analyses of the WAT of mice fed t10c12 CLA by our laboratory and others found three major trends. […] This initial inflammatory response is transient: the expression levels of many of these genes returns to normal levels following the first week of treatment, and the remaining genes are expressed at lower levels than the initial response. […] In particular, carnitine palmitoyltransferase I (CPT1), uncoupling protein 1 (UCP1), and uncoupling protein 2 (UCP2) show increases. The response in UCP1 and UCP2 genes is quite strong, as the levels of the induced mRNAs are in the 95th and 90th percentiles of the most abundant mRNAs in the adipocyte, respectively. UCP1 is usually exclusively expressed in brown adipose tissue, so this is a remarkable change in expression pattern with likely physiological effects. There is not a consensus that increased metabolic heat output occurs in t10c12 CLA treatments, but this increased metabolism has been observed in some studies.

3T3-L1 fibroblasts = assay: Integrated stress response (ISR) in 3T3-L1 fibroblasts, microarray; type: cell-based, Mouse; conditions: 3T3-L1 fibroblasts prior to differentiation
Text: (§2) We have microarray analyses of 3T3-L1 fibroblasts prior to differentiation and from liver tissues in mice treated with t10c12 CLA that support the hypothesis that t10c12 CLA is selective in the types of cells responding. The ISR is a cell response that most cells are capable of inducing and is a key part of the response to t10c12 CLA [5, 19].

liver tissues = assay: Microarray analysis of liver tissues of mice treated with t10c12 CLA; type: in vivo
Text: as §2

[7] = 100 uM, from 30 min, persisted 16 hr, vs linoleic acid

NC(=O)c1ncn([C@@H]2O[C@H](CO)[C@@H](O)[C@H]2O)c1N [AICAR, aminoimidazole carboxamide ribonucleotide, reference compound]
MCP-1 induction relative to the LA control (MCP-1 mRNA): neither metformin nor AICAR alone produced a significant induction

[H]/N=C(/N)N/C(=N/[H])NCCc1ccccc1 [Phenformin]
p-AMPK levels (AMPK; compared with metformin): higher p-AMPK levels
delipidation (3T3-L1 adipocytes [1]; Example 9): sufficient for the type of strong delipidation observed with t10c12 CLA treatments
inflammatory response (adipocytes): stronger than that observed with metformin
lactic acidosis [2]: can cause toxic lactic acidosis

CN(C)C(=N)N=C(N)N [Metformin]
MCP-1 induction relative to the LA control (MCP-1 mRNA): neither metformin nor AICAR alone produced a significant induction
induction of inflammatory genes (CD14, Clcf1, Cox2, Csf1, MCP-1, Osmr, PAI, SOCS3) (3T3-L1 adipocytes [3]): lower levels of induction
fat pad weights relative to control untreated mice [4]: increased fat pad weights
final weight of the epididymal (EPI) ([4]; Met2 (2 mmol/L), 14 d): 1.06 ± 0.13 g
final weight of the retroperitoneal (RP) ([4]; Met2 (2 mmol/L), 14 d): 0.37 ± 0.1 g
change in body weight (BW) ([4]; Met2 (metformin 2 mmol/L drinking water), 14 d): 2.89 ± 1 g
final weight of the epididymal (EPI) ([4]; Met20 (20 mmol/L), 14 d): 1.08 ± 0.12 g
final weight of the retroperitoneal (RP) ([4]; Met20 (20 mmol/L), 14 d): 0.33 ± 0.06 g
change in body weight (BW) ([4]; Met20 (metformin 20 mmol/L drinking water), 14 d): 2.54 ± 0.51 g
change in body weight (BW) ([5]; Met2 (2 mmol/L), 14 d): 1.96 ± 0.9 g
final weight of the epididymal (EPI) ([5]; Met2 (2 mmol/L), 14 d): 0.59 ± 0.07 g
final weight of the retroperitoneal (RP) ([5]; Met2 (2 mmol/L), 14 d): 0.23 ± 0.04 g
change in body weight (BW) ([5]; Met20 (20 mmol/L), 14 d): 2.82 ± 0.96 g
final weight of the epididymal (EPI) ([5]; Met20 (20 mmol/L), 14 d): 0.48 ± 0.09 g
final weight of the retroperitoneal (RP) ([5]; Met20 (20 mmol/L), 14 d): 0.23 ± 0.06 g

CC(C)[C@@H](O)CC[C@@H](C)[C@H]1CC[C@H]2[C@@H]3CC=C4C[C@@H](O)CC[C@]4(C)[C@H]3CC[C@]12C [24(S)-Hydroxycholesterol]
TG levels (3T3-L1 adipocytes [1]): did not reduce TG levels

C[C@H](CC[C@@H]1OC1(C)C)[C@H]1CC[C@H]2[C@@H]3CC=C4C[C@@H](O)CC[C@]4(C)[C@H]3CC[C@]12C [24(S),25-epoxycholesterol]
TG levels (3T3-L1 adipocytes [1]): did not reduce TG levels

CC[C@H](C)C(=O)O[C@H]1CCC=C2C=C[C@H](C)[C@H](CC[C@@H]3C[C@@H](O)CC(=O)O3)[C@H]21 [mevastatin, Mevastatin]
reduced triglyceride levels by, relative to the linoleic acid control (3T3-L1 adipocytes [1]): 10%

CC1=C(/C=C/C(C)=C/C=C/C(C)=C/C(=O)O)C(C)(C)CCC1 [ATRA, All trans retinoic acid]
TG levels (3T3-L1 adipocytes [1]): increased amounts of TG

c1cc(-c2cnn3cc(-c4ccc(OCCN5CCCCC5)cc4)cnc23)ccn1 [compound C, reference compound]
phosphorylation of AMPK (AMPK; Example 2, western blot): inhibited
phosphorylation of Acetyl-Coenzyme A Carboxylase (ACC) ([6]; Example 2, western blot): inhibited

Cc1cc(SCc2sc(-c3ccc(C(F)(F)F)c(F)c3)nc2C)ccc1OCC(=O)O [GW0742]
TG levels (3T3-L1 adipocytes [1]): little effect on TG levels

CCCCC/C=C\C=C\CCCCCCCCC(=O)O [CLA, trans-10, cis-12 CLA]
total amount of AMPK (AMPK; 100 uM, 16 hr experiment): remained constant
level of phosphorylated AMPK (AMPK; [7]): increased levels
Phospho-AMPK Amount (AMPK; 2 hr): 6.0
Phospho-AMPK Amount (AMPK; 8 hr): 1.7
reduction in triglyceride levels (3T3-L1 adipocytes [1]; Example 2, CLA alone, vs LA control): 50%
reduced triglyceride levels by, relative to the linoleic acid control (3T3-L1 adipocytes [1]): 25%
MCP-1 induction relative to the LA control (MCP-1 mRNA): 23 fold
MCP-1 mRNA levels (MCP-1 mRNA; LA = 1): 23
fat pad weights relative to control untreated mice [4]: no significant change
change in body weight (BW) ([4]; Met0 (no metformin), 14 d): 1.89 ± 0.95 g
final weight of the epididymal (EPI) ([4]; Met0, 14 d): 0.89 ± 0.17 g
final weight of the retroperitoneal (RP) ([4]; Met0, 14 d): 0.27 ± 0.08 g
change in body weight (BW) ([5]; Met0, 14 d): 1.42 ± 0.46 g
final weight of the epididymal (EPI) ([5]; Met0, 14 d): 0.31 ± 0.07 g
final weight of the retroperitoneal (RP) ([5]; Met0, 14 d): 0.1 ± 0.01 g
UCP1 induced mRNA level, percentile of the most abundant mRNAs in the adipocyte (WAT of mice; WAT of mice fed t10c12 CLA): 95 percentile
UCP2 induced mRNA level, percentile of the most abundant mRNAs in the adipocyte (WAT of mice; WAT of mice fed t10c12 CLA): 90 percentile
expression of key adipocyte lipid-related genes (WAT of mice; WAT of mice fed t10c12 CLA): reduced expression
mRNA levels of key fatty acid oxidation genes (CPT1, UCP1, UCP2) (WAT of mice; WAT of mice fed t10c12 CLA): increased mRNA levels
inflammatory response (Cox2, cytokines) (WAT of mice; first several days of dietary t10c12 CLA, transient): induce an inflammatory response
ISR response (3T3-L1 fibroblasts): do not show this response
ISR in liver (liver tissues; compared with adipose tissue): weak ISR
delipidation or inflammatory response in liver (liver tissues; mice treated with t10c12 CLA): lacked a significant delipidation or inflammatory response
total amount of ACC ([6]; 100 uM, 16 hr experiment): remained constant
level of phosphorylated ACC [6, 7]: increased levels
Phospho-ACC amount ([6]; 2 hr): 4.1
Phospho-ACC amount ([6]; 8 hr): 3.3

CC1=C(/C=C/C(C)=C/C=C/C(C)=C/CO)C(C)(C)CCC1 [vitamin A, retinol]
TG levels (3T3-L1 adipocytes [1]): little impact
